In patent publication US4280993A, “Process for determining the concentration of benzodiazepines in a body fluid” (priority 1978, dated 1981):

Legend:
[1] = system: dopamine receptor sites in mamalian brain; conditions: cited from earlier work
[2] = system: receptor powder (ox brain tissue), ^3 H-flunitrazepam binding; assay: Displacement of 3H-flunitrazepam from freeze-dried ox brain receptor powder (lorazepam standard curve); conditions: for Counts per minute: 50 μl added, bound 3H-flunitrazepam
Method: (a) A 25 mM solution of a sodium phosphate buffer, pH 7.0 (Solution I).
(b) A solution containing 18 ng and 5 μCi of ^3 H-flunitrazepam in 10 ml of 10% ethanol in Solution I (Solution II).
(c) About 0.3 g of a receptor powder, prepared as described below, suspended in 30 ml of Solution I (Suspension III).
(d) A standard solution (IV) containing 20 ng/ml of lorazepam, and prepared by dilution with the buffer I of 0.5 ml of 93% ethanolic solution (IVa) of lorazepam, containing 1 μg/ml of lorazepam, to a volume of 25 ml.
To 15 ml test tubes, each containing 400 μl of the receptor suspension III, are added 100 μl of Solution II and 50 μl of the sample, or 50 μl of the standard solution IV. The tubes are incubated at room temperature for at least 20 minutes and maximum 2 hours. Then, 10 ml of isothermic I are added, and the mixture is immediately filtered through a Whatman GF/C glassfibre filter and washed with 10 ml of isothermic buffer solution I.
The washed filter is placed in a scintillation vial, containing 5 ml of conventional scintillation fluid, and counted shortly after for 0.5 minute, or better the next day for 5 minutes.
For the preparation of a standard curve, a series of dilutions of the lorazepam standard solution (IV) is prepared by diluting with the buffer I, and assaying is performed in duplicate with 50 μl of each of these dilutions being added to the test tubes, each of which contains 400 μl of the suspension III and 100 μl of the solution II.
The average of counts co from the controls is 3187 from which is subtracted the average of the counts from the blanks, which is 160, to give co -cblank.
The count cx from each sample also has to be reduced by the average counts from the blanks, resulting from background radiation, to give cx -cblank.
In the accompanying drawing, the test results are plotted as co -cblank/cx -cblank versus the concentration of lorazepam, and the standard curve, therefore, can be used for quantitative determination of the benzodiazepine contents of samples.
The receptor powder used in the process described above was ox brain tissue which had been homogenized in 3 volumes of iced 1M sucrose solution whereafter the homogenate had been freeze-dried.

Compound | binding to dopamine receptor sites [1] | c o - cblank / c x - cblank ([2]; drug 6.25 ng/ml) | Counts per minute ([2]; drug 6.25 ng/ml) [counts per minute] | c o - cblank / c x - cblank ([2]; drug 12.5 ng/ml) | Counts per minute ([2]; drug 12.5 ng/ml) [counts per minute] | c o - cblank / c x - cblank ([2]; drug 25 ng/ml) | Counts per minute ([2]; drug 25 ng/ml) [counts per minute] | c o - cblank / c x - cblank ([2]; drug 62.5 ng/ml) | Counts per minute ([2]; drug 62.5 ng/ml) [counts per minute] | c o - cblank / c x - cblank ([2]; drug 125 ng/ml) | Counts per minute ([2]; drug 125 ng/ml) [counts per minute] | c o - cblank / c x - cblank ([2]; drug 250 ng/ml)
O=C(CCCN1CCC2(CC1)C(=O)NCN2c1ccccc1)c1ccc(F)cc1 [^3 H-spiroperidol] | bind selectively and with high affinity |  |  |  |  |  |  |  |  |  |  | 
O=C1Nc2ccc(Cl)cc2C(c2ccccc2Cl)=NC1O (stereo not drawn) [lorazepam, 7-chloro-5-(2-chlorophenyl)-3-hydroxy-2,3-dihydro-1H-1,4-benzodiazepin-2-one] |  | 1.41 | 2313 | 1.73 | 1910 | 2.30 | 1477 | 3.86 | 944 | 6.87 | 601 | 12.51
